Measurements from PubChem BioAssay AID248 (DTP/NCI, 2004).
“And” between values parts separate entries of the source, which are not always exact repeats. Identical values can stand only once. Toxic doses and inconclusive results are not listed. No stated cut-off is given here; in the data, active means T/C of 150% or more; inactive means T/C below 125%.

Tested on: L1210 leukemia ip in BDF1 mice, survival T/C
Test: NCI In Vivo Anticancer Drug Screen. Data for tumor model L1210 Leukemia (intraperitoneal) in B6D2F1 (BDF1) mice
Conditions: endpoint: mean survival time, higher = longer survival
Outline: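 Read-out is survival time, reported as the treated-group measurement over the vehicle-control measurement.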

[1] = dose: 100.0 mg/kg/injection, schedule: Q04DX003 (ip), vehicle: Klucel (hydroxypropylcellulose) (HPC)
[2] = dose: 200.0 mg/kg/injection, schedule: Q04DX003 (ip), vehicle: Klucel (hydroxypropylcellulose) (HPC)
[3] = dose: 400.0 mg/kg/injection, schedule: Q04DX003 (ip), vehicle: Klucel (hydroxypropylcellulose) (HPC)
[4] = dose: 100.0 mg/kg/injection, schedule: Q01DX001 (ip), vehicle: saline
[5] = dose: 200.0 mg/kg/injection, schedule: Q01DX001 (ip), vehicle: saline
[6] = dose: 400.0 mg/kg/injection, schedule: Q01DX001 (ip), vehicle: saline
[7] = dose: 100.0 mg/kg/injection, schedule: Q01DX001 (ip), vehicle: saline with Tween-80
[8] = dose: 200.0 mg/kg/injection, schedule: Q01DX001 (ip), vehicle: saline with Tween-80
[9] = dose: 400.0 mg/kg/injection, schedule: Q01DX001 (ip), vehicle: saline with Tween-80
[10] = dose: 100.0 mg/kg/injection, schedule: Q01DX009 (ip), vehicle: saline
[11] = dose: 100.0 mg/kg/injection, schedule: Q04DX003 (ip), vehicle: saline
[12] = dose: 200.0 mg/kg/injection, schedule: Q01DX009 (ip), vehicle: saline
[13] = dose: 200.0 mg/kg/injection, schedule: Q04DX003 (ip), vehicle: saline
[14] = dose: 400.0 mg/kg/injection, schedule: Q01DX009 (ip), vehicle: saline
[15] = dose: 400.0 mg/kg/injection, schedule: Q04DX003 (ip), vehicle: saline
[16] = dose: 50.0 mg/kg/injection, schedule: Q01DX001 (ip), vehicle: carboxymethylcellulose (CMC)

Measured: T/C

N=C(N)c1ccc(OCCCCOc2ccc(NC(=O)Nc3cccc(S(=O)(=O)F)c3)cc2)cc1
inactive: dose: 25.0 mg/kg/injection, schedule: Q01DX001 (ip), vehicle: Klucel (hydroxypropylcellulose) (HPC) 97 % of control | dose: 50.0 mg/kg/injection, schedule: Q01DX001 (ip), vehicle: Klucel (hydroxypropylcellulose) (HPC) 95 % of control | dose: 100.0 mg/kg/injection, schedule: Q01DX001 (ip), vehicle: Klucel (hydroxypropylcellulose) (HPC) 89 % of control

Nc1nc(CCl)cs1
inactive: dose: 25.0 mg/kg/injection, schedule: Q04DX003 (ip), vehicle: Klucel (hydroxypropylcellulose) (HPC) 103 % of control | dose: 50.0 mg/kg/injection, schedule: Q04DX003 (ip), vehicle: Klucel (hydroxypropylcellulose) (HPC) 95 % of control | [1] 98 % of control and 100 % of control

CC1CN=C(c2ccc3ccccc3c2O)S1 (stereo not drawn)
inactive: dose: 100.0 mg/kg/injection, schedule: Q01DX005 (ip), vehicle: saline with Tween-80 90 % of control | dose: 100.0 mg/kg/injection, schedule: Q01DX009 (ip), vehicle: saline with Tween-80 113 % of control | dose: 100.0 mg/kg/injection, schedule: Q04DX002 (ip), vehicle: saline with Tween-80 103 % of control | dose: 200.0 mg/kg/injection, schedule: Q01DX005 (ip), vehicle: saline with Tween-80 90 % of control | dose: 200.0 mg/kg/injection, schedule: Q01DX009 (ip), vehicle: saline with Tween-80 90 % of control | dose: 200.0 mg/kg/injection, schedule: Q04DX002 (ip), vehicle: saline with Tween-80 96 % of control | dose: 400.0 mg/kg/injection, schedule: Q01DX009 (ip), vehicle: saline with Tween-80 94 % of control | dose: 400.0 mg/kg/injection, schedule: Q04DX002 (ip), vehicle: saline with Tween-80 103 % of control

c1ccc(-c2nc3ccccc3o2)cc1
inactive: dose: 100.0 mg/kg/injection, schedule: Q01DX009 (ip), vehicle: Klucel (hydroxypropylcellulose) (HPC) 92 % of control | [1] 92 % of control | dose: 200.0 mg/kg/injection, schedule: Q01DX009 (ip), vehicle: Klucel (hydroxypropylcellulose) (HPC) 97 % of control | [2] 95 % of control | dose: 400.0 mg/kg/injection, schedule: Q01DX009 (ip), vehicle: Klucel (hydroxypropylcellulose) (HPC) 92 % of control | [3] 103 % of control

CC1(C)Oc2c(ccc(O)c2CN2CCCC2)C2=C1CCCC2
inactive: [4] 95 % of control | [5] 95 % of control | [6] 95 % of control

CCn1c(=S)[nH]c(/C=N/N(CCO)CCO)c(C)c1=O
inactive: [7] 103 % of control | [8] 103 % of control | [9] 95 % of control

CCOC(OCC)OC(C)=O
inactive: [10] 107 % of control | [11] 110 % of control | [12] 98 % of control | [13] 97 % of control | [14] 90 % of control | [15] 103 % of control

COc1ccc(C(=O)c2ccccc2)cc1OC
inactive: [1] 89 % of control | [2] 90 % of control | [3] 89 % of control

NCCCCC(=O)NC(CCCCNC(=O)OCc1ccccc1)C(=O)O (stereo not drawn)
inactive: [4] 102 % of control | [5] 107 % of control | [6] 105 % of control

C1=C(c2ccccc2)N2CCN=C2S1
inactive: [16] 100 % of control

Nc1cc(Cl)c(N)c(N)n1
inactive: [7] 94 % of control | [8] 109 % of control | [9] 108 % of control

CC(N)C(=O)O (stereo not drawn)
inactive: dose: 25.0 mg/kg/injection, schedule: Q04DX002 (ip), vehicle: saline 101 % of control | dose: 50.0 mg/kg/injection, schedule: Q04DX002 (ip), vehicle: saline 101 % of control | [4] 92 % of control | [10] 104 % of control | dose: 100.0 mg/kg/injection, schedule: Q04DX002 (ip), vehicle: saline 104 % of control | [11] 97 % of control | [5] 96 % of control | [12] 91 % of control | [13] 100 % of control | [6] 105 % of control | [14] 98 % of control | [15] 100 % of control

CCCCC(CC)C(=O)C(CCN(C)C)(c1ccccc1)c1ccccn1 (stereo not drawn)
inactive: dose: 44.0 mg/kg/injection, schedule: Q01DX Z (ip), vehicle: methylcellulose (MC) 101 % of control | dose: 66.0 mg/kg/injection, schedule: Q01DX Z (ip), vehicle: methylcellulose (MC) 97 % of control | dose: 100.0 mg/kg/injection, schedule: Q01DX Z (ip), vehicle: methylcellulose (MC) 96 % of control

CCS(=O)(=O)N1CC(C)OC(C)C1 (stereo not drawn)
inactive: dose: 100.0 mg/kg/injection, schedule: Q04DX002 (ip), vehicle: Klucel (hydroxypropylcellulose) (HPC) 96 % of control | dose: 200.0 mg/kg/injection, schedule: Q04DX002 (ip), vehicle: Klucel (hydroxypropylcellulose) (HPC) 103 % of control | dose: 400.0 mg/kg/injection, schedule: Q04DX002 (ip), vehicle: Klucel (hydroxypropylcellulose) (HPC) 107 % of control

Cc1ccccc1N1CCN(CCO)CC1
inactive: dose: 12.5 mg/kg/injection, schedule: Q01DX001 (ip), vehicle: saline 105 % of control | dose: 12.5 mg/kg/injection, schedule: Q04DX003 (ip), vehicle: saline 100 % of control | dose: 25.0 mg/kg/injection, schedule: Q01DX001 (ip), vehicle: saline 105 % of control | dose: 25.0 mg/kg/injection, schedule: Q04DX003 (ip), vehicle: saline 110 % of control | dose: 50.0 mg/kg/injection, schedule: Q01DX001 (ip), vehicle: saline 100 % of control | dose: 50.0 mg/kg/injection, schedule: Q04DX003 (ip), vehicle: saline 110 % of control

CC(=O)OC1CCC2(C)C3=C(CCC2C1(C)C)C1(C)CCC(c2ccc(C(C)C)oc2=O)C1(C)CC3 (stereo not drawn)
inactive: dose: 100.0 mg/kg/injection, schedule: Q01DX001 (sc), vehicle: steriod suspending solution 103 % of control | dose: 200.0 mg/kg/injection, schedule: Q01DX001 (sc), vehicle: steriod suspending solution 106 % of control | dose: 400.0 mg/kg/injection, schedule: Q01DX001 (sc), vehicle: steriod suspending solution 103 % of control

CC(=O)OC(C)CN(C)C (stereo not drawn)
inactive: [10] 103 % of control | [11] 103 % of control | [12] 100 % of control | [13] 105 % of control | [14] 100 % of control | [15] 93 % of control

CCOC(=O)CCCN(C(=O)c1ccccc1)c1scc(-c2ccccc2)c1C(=O)OCC
inactive: dose: 50.0 mg/kg/injection, schedule: Q04DX003 (ip), vehicle: saline with Tween-80 92 % of control | dose: 100.0 mg/kg/injection, schedule: Q04DX003 (ip), vehicle: saline with Tween-80 95 % of control | dose: 200.0 mg/kg/injection, schedule: Q04DX003 (ip), vehicle: saline with Tween-80 94 % of control | dose: 400.0 mg/kg/injection, schedule: Q04DX003 (ip), vehicle: saline with Tween-80 103 % of control

COC1OCC(NC(=O)C(F)(F)F)C(OC(C)=O)C1OC(C)=O (stereo not drawn)
inactive: [16] 94 % of control | dose: 100.0 mg/kg/injection, schedule: Q01DX001 (ip), vehicle: carboxymethylcellulose (CMC) 100 % of control | dose: 200.0 mg/kg/injection, schedule: Q01DX001 (ip), vehicle: carboxymethylcellulose (CMC) 105 % of control | dose: 400.0 mg/kg/injection, schedule: Q01DX001 (ip), vehicle: carboxymethylcellulose (CMC) 100 % of control
